Data from ChEMBL document CHEMBL1201862, “PubChem BioAssay data set” (2004).
The source made the active and inactive calls.

Legend:
[1] = molecular target: T1, Aryl hydrocarbon receptor (Homo sapiens, UniProt P35869); assay: Luminescence-based cell-based high throughput dose response assay for activators of the Aryl Hydrocarbon Receptor (AHR). [Related pubchem assays: 2796 (Primary screen (AHR activators in singlicate)), 2845 (Confirmation screen (AHR activators in triplicate)), 434939 (Counterscreen (PXR activators in triplicate)), 2804 (Summary (AHR activators))]; format: ADME
T1 sequence (P35869 whole entry): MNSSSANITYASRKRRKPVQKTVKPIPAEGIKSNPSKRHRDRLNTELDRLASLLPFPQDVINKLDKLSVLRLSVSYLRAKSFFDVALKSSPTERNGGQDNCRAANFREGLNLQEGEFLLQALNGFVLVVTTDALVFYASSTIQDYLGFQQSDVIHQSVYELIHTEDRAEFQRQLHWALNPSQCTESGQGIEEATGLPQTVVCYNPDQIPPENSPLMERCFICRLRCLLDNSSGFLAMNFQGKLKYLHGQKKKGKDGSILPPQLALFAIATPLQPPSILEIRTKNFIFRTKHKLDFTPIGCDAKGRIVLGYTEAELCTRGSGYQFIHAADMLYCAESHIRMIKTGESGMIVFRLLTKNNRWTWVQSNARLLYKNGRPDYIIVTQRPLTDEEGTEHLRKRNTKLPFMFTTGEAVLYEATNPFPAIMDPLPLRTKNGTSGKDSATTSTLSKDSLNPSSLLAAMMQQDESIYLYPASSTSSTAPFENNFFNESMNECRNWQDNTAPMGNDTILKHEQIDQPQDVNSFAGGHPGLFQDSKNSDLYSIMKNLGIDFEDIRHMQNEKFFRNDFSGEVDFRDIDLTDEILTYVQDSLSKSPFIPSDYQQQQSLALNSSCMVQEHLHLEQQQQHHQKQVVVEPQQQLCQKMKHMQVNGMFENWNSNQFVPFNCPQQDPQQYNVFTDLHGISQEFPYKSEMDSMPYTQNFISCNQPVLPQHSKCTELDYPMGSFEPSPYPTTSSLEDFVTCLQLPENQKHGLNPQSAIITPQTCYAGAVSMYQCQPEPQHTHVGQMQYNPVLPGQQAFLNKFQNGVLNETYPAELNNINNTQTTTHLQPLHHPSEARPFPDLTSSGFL

[2] = tested on: Streptococcus sp. 'group A'; assay: growth inhibition of control SK(-) GAS strain, dose response, counter-screen for streptokinase expression inhibitor project, luminescence, kanamycin, BacTiterGlo, confirmation (AID 1900); format: functional, organism-based
Streptokinase A = molecular target: T2, Streptokinase A (Streptococcus pyogenes serotype M1, UniProt P10520); assay: S. pyogenes streptokinase expression inhibitors, potency, dose response, plasminogen activation absorbance, OD405 (AID 1914); format: functional, Streptococcus pyogenes M1 GAS;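 note: secreted streptokinase activity via plasminogen activation per viability signal from cell pellet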
T2 sequence (P10520 whole entry): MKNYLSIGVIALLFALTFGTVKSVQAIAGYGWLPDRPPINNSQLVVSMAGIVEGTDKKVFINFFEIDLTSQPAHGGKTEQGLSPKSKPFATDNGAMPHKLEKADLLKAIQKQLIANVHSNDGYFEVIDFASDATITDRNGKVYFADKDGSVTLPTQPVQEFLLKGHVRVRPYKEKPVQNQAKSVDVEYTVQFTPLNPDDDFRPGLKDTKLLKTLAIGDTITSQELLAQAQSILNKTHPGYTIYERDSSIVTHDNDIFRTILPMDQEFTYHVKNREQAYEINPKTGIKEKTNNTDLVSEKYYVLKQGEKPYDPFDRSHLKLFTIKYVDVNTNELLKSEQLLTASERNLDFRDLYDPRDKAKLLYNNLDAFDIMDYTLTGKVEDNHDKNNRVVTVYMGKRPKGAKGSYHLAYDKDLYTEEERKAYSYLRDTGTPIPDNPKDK

[3] = inhibitors of intracellular T. cruzi replication, confirmation, NIH3T3 host cells, beta-gal luminescence (AID 2044); format: functional, cell-based;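 note: intracellular parasites grown in NIH/3T3 mouse fibroblasts as host cells; luminescent beta-galactosidase reporter signal from transgenic T. cruzi replicating inside host cells; inhibitors lower the luminescence signal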
Streptococcus = assay: Group A Streptococcus viability loss, dose response, counter-screen for streptokinase expression inhibitor project, luminescence, BacTiterGlo (AID 1915); format: functional, organism-based;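 note: potency for reduction of bacterial viability or growth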
[4] = cytotoxicity toward NIH3T3 fibroblasts, dose response, counter-screen, cell-based, ATP luminescence, mouse fibroblasts (AID 2010); format: functional;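 note: cells exposed to compound for about 90 hours before reading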
[5] = cytotoxicity in KRAS-transformed pancreatic duct cells, primary screen, cell-based, fluorescence, HTS (AID 431); format: functional; details: Homo sapiens;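 note: cell line used: HPDE-C7K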
[6] = molecular target: Sphingosine 1-phosphate receptor 2 (Homo sapiens, UniProt O95136); assay: Dose Response Cell Based Assay for Antagonists of the S1P2 Receptor. [Related pubchem assays: 856, 736 ]; format: functional
[7] = cytotoxicity in HPDE-C7 cells, cell-based, fluorescence, HTS (AID 430); format: functional; details: Homo sapiens
Ephrin type-A receptor 4 = Ephrin type-A receptor 4 (Mus musculus, UniProt Q03137); assay: inhibitors of EphA4 binding to KYL peptide, primary screen, biochemical, colorimetric, mouse EphA4 (AID 689); format: functional
[8] = molecular target: Luciferin 4-monooxygenase (Photinus pyralis, UniProt P08659); assay: firefly luciferase enzyme inhibitors, dose response, biochemical, luminescence (AID 1891)
[9] = molecular target: Oxysterols receptor LXR-beta (Homo sapiens, UniProt P55055); assay: LXR agonists, Gal4 luciferase reporter, dose response, counter-screen for ssDAF-12 agonist project, cell-based, luminescence, HEK293, S. stercoralis campaign (AID 720737); format: functional; details: read-out: IC50 (the source's name)
[10] = Luminescence Cell-Based Dose Confirmation HTS to Identify Inhibitors of Platelet Dense Granule Release. [Related pubchem assays: 1663 (Primary HTS), 1678 (Summary of Project)]; format: functional
[11] = Luminescence-based cell-based high throughput dose response assay to identify activators of the DAF-12 from the parasite S. stercoralis (ssDAF-12).; format: functional
[12] = inhibitors of PGC1a acetylation in cells, dose response, cell-based, cherry-picked samples (AID 720514); format: functional;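 note: potency may reflect raised or lowered acetylation signal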
[13] = cytotoxicity in OV-90 ovarian cancer cells, dose response, PAX8 inhibitor project, cell-based, plate reader, dry powder, SA8 (AID 743149); format: functional
[14] = cytotoxicity dependent on PAX8, dose response, cell-based, plate reader, dry powder (AID 743049); format: functional
[15] = PAX2 cell-based inhibition, dose response, selectivity assay for PAX8 inhibitor project, plate reader, dry powder samples (AID 743048); format: functional;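 note: HEK293 cells carrying a WT1 promoter luciferase reporter driven by expressed Pax2; potency is for inhibition of Pax2 driven reporter signal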
[16] = PAX5 activity inhibitors, dose response, selectivity assay for PAX8 inhibitor project, cell-based, plate reader, dry powder samples (AID 743047); format: functional;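 note: HEK293 cells carrying a Pax5 driven CD19 promoter luciferase reporter; potency of inhibitors that lower reporter luminescence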
[17] = NIH:OVCAR-3 ovarian cancer cell cytotoxicity, dose response, PAX8 inhibitor project, plate reader, dry powder samples (AID 743044); format: functional, cell-based
[18] = HepG2 cell cytotoxicity, dose response, cytotoxicity control, cherry-picked samples (AID 1159577); format: functional, cell-based
[19] = P. falciparum Dd2 growth inhibitors, dose response, SYBR Green, cherry-picked samples (AID 1159567); format: functional, cell-based
[20] = P. falciparum 3D7-ScDHODH growth inhibitors, dose response, SYBR Green, dry powder samples (AID 1159570); format: functional, cell-based;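 note: parasite growth measured after 72 hours of compound exposure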
[21] = HepG2 cell cytotoxicity, dose response, cytotoxicity control, plate reader, dry powder samples (AID 1159569); format: functional, cell-based;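 note: inhibitor potency with signal falling toward the positive control level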
[22] = P. falciparum ATP4 D1247Y mutant growth inhibitors, dose response, NITD609-resistant line, SYBR Green, dry powder (AID 1159571); format: functional, cell-based;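 note: parasites synchronized at ring stage by sorbitol before testing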
[23] = P. falciparum Dd2 growth inhibitors, dose response, SYBR Green, dry powder samples (AID 1159566); format: functional, cell-based;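 note: potency for growth inhibition with lower SYBR green DNA signal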
[24] = HeLa 4N DNA content increase, dose response, cell-based, IC50 (AID 1117351); format: functional
[25] = HeLa 2N DNA content increase, dose response, cell-based, IC50 (AID 1117349); format: functional

Ephrin type-A receptor 4, sequence (Q03137 whole entry): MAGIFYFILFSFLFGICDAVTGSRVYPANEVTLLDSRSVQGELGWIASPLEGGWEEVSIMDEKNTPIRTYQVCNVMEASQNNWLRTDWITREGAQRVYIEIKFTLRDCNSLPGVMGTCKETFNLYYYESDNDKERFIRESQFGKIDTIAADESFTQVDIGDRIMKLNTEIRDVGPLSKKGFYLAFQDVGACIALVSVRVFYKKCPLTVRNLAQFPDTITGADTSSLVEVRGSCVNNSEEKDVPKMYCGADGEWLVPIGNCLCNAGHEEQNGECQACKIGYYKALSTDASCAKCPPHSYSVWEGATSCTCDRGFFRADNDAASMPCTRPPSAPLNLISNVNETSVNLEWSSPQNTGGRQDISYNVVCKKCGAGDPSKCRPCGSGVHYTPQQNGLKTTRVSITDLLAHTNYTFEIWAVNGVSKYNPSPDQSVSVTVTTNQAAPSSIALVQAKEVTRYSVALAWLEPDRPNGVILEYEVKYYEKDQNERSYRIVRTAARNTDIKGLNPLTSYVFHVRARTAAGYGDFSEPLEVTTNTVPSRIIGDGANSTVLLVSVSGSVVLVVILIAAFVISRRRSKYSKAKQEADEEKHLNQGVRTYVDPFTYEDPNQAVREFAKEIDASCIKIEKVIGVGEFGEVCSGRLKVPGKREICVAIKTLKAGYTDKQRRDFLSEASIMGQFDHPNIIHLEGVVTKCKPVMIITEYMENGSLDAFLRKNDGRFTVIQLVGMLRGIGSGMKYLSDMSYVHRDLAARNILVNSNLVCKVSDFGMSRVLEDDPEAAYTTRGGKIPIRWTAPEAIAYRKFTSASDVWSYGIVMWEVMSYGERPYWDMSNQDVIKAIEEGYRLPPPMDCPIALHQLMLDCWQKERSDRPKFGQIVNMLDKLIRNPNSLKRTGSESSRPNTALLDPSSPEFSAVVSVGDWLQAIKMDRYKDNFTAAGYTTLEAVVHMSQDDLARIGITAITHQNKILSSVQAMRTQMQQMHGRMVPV
Luciferin 4-monooxygenase, sequence (P08659 whole entry, the tested form may be a part): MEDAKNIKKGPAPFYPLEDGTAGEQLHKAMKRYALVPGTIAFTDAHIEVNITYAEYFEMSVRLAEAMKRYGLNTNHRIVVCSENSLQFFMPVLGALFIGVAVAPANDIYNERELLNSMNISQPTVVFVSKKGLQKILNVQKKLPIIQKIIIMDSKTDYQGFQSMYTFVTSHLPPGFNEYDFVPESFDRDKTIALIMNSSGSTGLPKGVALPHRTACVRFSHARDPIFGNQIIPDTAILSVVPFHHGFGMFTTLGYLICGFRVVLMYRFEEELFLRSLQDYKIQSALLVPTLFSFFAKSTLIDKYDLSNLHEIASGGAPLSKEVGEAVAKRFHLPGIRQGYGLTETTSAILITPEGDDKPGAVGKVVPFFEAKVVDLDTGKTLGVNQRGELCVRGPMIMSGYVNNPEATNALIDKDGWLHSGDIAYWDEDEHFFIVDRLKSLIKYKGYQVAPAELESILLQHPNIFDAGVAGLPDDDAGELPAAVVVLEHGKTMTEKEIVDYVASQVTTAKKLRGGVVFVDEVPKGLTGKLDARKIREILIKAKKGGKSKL
Sphingosine 1-phosphate receptor 2, sequence (O95136 whole entry): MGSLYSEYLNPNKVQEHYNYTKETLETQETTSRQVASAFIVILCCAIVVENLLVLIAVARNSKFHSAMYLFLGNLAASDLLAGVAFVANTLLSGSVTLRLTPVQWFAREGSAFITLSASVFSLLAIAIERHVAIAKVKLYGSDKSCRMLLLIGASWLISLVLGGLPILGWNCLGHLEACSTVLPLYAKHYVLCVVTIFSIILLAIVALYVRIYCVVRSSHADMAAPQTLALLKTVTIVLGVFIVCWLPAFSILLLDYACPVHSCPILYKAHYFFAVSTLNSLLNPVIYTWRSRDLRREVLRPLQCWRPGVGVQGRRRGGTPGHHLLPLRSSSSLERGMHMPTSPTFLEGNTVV
Oxysterols receptor LXR-beta, sequence (P55055 whole entry, the tested form may be a part): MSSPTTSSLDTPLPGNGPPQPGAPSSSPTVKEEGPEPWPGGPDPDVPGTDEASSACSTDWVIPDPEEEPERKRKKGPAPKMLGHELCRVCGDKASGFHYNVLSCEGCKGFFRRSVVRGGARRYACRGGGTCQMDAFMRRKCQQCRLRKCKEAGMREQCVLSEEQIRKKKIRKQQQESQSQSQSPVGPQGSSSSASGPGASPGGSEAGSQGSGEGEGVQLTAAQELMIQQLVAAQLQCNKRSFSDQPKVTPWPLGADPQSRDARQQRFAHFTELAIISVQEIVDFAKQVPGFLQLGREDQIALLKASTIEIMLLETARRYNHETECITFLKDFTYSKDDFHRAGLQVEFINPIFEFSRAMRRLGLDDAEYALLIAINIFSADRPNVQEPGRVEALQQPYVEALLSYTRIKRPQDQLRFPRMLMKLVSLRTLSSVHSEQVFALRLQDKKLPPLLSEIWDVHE

Cc1csc(NC(=O)CSc2ccc3nnc(-c4ccncc4)n3n2)n1
EC50 [1]: 12 µM (not active)

N#C/C(=C/c1ccc(N2CCCCCC2)o1)c1ccc(F)cc1
EC50 [2]: 19.2 µM (active)
EC50 (Streptokinase A): 16 µM (active)
EC50 [3]: 3.49 µM (active)
EC50 (Streptococcus): > 150 µM (not active)
EC50 [4]: 9.44 µM (active)
EC50 [5]: 14.1 µM (active)
IC50 [6]: 11.5 µM (not active)
EC50 [7]: 13.6 µM (active)

COc1ccc(/C=c2\sc3nc(-c4ccccc4)c(-c4ccccc4)n3c2=O)cc1OC
IC50 (Ephrin type-A receptor 4): 8.12 µM (active)

N/C(=N\N=C\c1cccc(O)c1)c1nonc1N
EC50 [8]: 3.47 µM (active)
EC50 [9]: > 67.5 µM (inactive)
EC50 [10]: 1.75 µM (active)
IC50 [11]: > 67.5 µM (inactive)

C[C@H](CO)N1C[C@H](C)[C@@H](CN(C)C(=O)C2CCCCC2)Oc2cc(C#Cc3ccncc3)ccc2S1(=O)=O
AC50 [12]: 9.86 µM (active)

COC(=O)[C@@]1(CCS(=O)(=O)c2ccccc2)N=C(c2ccc(OCCCO)cc2)O[C@H]1c1ccccc1
AC50 [13]: 14.1 µM (active)
AC50 [14]: > 100 µM (inactive)
AC50 [15]: 58.6 µM (active)
AC50 [16]: 77.3 µM (active)
AC50 [17]: 95 µM (active)

Cc1ccc(-c2ccc3c(c2)O[C@H](CN(C)Cc2ccncc2)[C@@H](C)CN([C@H](C)CO)S3(=O)=O)cc1
AC50 [18]: 22.1 µM (active)
AC50 [19]: 5.12 µM (active)

COc1cc(CN2C[C@@H]3N[C@H](C2)[C@@H]3c2ccc(-c3ccncc3)cc2)cc(OC)c1
AC50 [20]: 2.53 µM (active)
AC50 [21]: 18.7 µM (active)
AC50 [18]: > 39 µM (inactive)
AC50 [19]: 2.11 µM (active)
AC50 [22]: 1.9 µM (active)
AC50 [23]: 1.92 µM (active)

COCC#Cc1ccc([C@@H]2[C@H](CO)N3CCCCN(S(=O)(=O)c4ccc(OC)cc4)C[C@@H]23)cc1
AC50 [20]: 1.81 µM (active)
AC50 [21]: 98.4 µM (active)
AC50 [19]: 2.47 µM (active)
AC50 [22]: 1.48 µM (active)
AC50 [23]: 1.33 µM (active)

COCCOC(=O)C1=C(C)NC(C)=C(C(=O)OC/C=C/c2ccccc2)C1c1cccc([N+](=O)[O-])c1 (configuration not stated) [CILNIDIPINE]
IC50 [24]: > 10 µM (inactive)
IC50 [25]: > 10 µM (inactive)

COC(=O)[C@H]1[C@H]2C[C@@H]3c4[nH]c5cc(OC)ccc5c4CCN3C[C@H]2C[C@@H](OC(=O)/C=C/c2ccc(O)c(OC)c2)[C@@H]1OC [RESCIMETOL]
IC50 [24]: > 10 µM (inactive)
IC50 [25]: > 10 µM (inactive)
